Measurements reported in patent US20260257992A1, “AGONISTS OF SMALL HETERODIMER PARTNER FOR CANCER THERAPY” (THE BOARD OF TRUSTEES OF THE UNIVERSITY OF ILLINOIS, priority 2023, published 2026).

Columns and labels:
[1] = system: Treg expansion; assay: Treg expansion with PBMC-derived DCs of healthy volunteers; type: cell-based, human; settings: cells from healthy volunteers
[2] = target: T1, NR0B2 (Mus musculus, UniProt Q62227); assay: Attenuation of GW3965 (LXR agonist) induction of ABCA1 mRNA in BMDMs; type: cell-based
T1 construct: Dose response assay in BMDMs pre-treated with increasing doses of DSHN-OMe and then treated with 1 μM GW3965, using ABCA1 mRNA as an endpoint; endogenous in cells; host or cells: mouse bone marrow derived macrophages (BMDMs)
T1 sequence (Q62227 1-260): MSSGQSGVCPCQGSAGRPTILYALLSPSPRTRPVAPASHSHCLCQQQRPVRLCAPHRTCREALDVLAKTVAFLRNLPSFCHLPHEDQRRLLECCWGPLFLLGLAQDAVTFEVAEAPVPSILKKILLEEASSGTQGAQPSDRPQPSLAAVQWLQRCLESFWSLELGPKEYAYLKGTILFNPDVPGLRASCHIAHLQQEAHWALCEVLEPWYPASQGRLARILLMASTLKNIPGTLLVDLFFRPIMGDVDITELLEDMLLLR
Method: FIG. 5A-5D. DSHN-OMe, an NR0B2 small molecule ligand with increased potency in terms of reducing Treg expansion and strong efficacy against metastatic mammary tumors. (A) DSHN-OMe effectively reduces induction of LXR target gene ABCA1 by GW3965. Different letters denote statistical difference between GW3965 treated groups (N=3-4/group, 1-way ANOVA followed by Šidák test). (B) Dose response assay in BMDMs pre-treated with increasing doses of DSHN-OMe and then treated with 1 μM GW3965, using ABCA1 mRNA as an endpoint. Data was normalized to 0.01 μM DSHN-OMe (0%) and GW3965 alone (100%). DSHN (100 μM) is indicated for comparison (bar at end of graph). […] (C) Thermal shift assay using a recombinant protein presence of a fluorescent dye. Plot of raw data is above plot of first derivative. (D) DSHN-OMe is ineffective at regulating ABCA1 when NR0B2 is knocked down with siRNA in BMDMs.
The TM for apo/unliganded was 46.74±0.22, DSHN-OMe at 46.92±0.17 and DSHN at 46.34±0.51° C. (FIG. 5C).

[3] = Low cellular toxicity screen; type: cell-based; parameters: key: ✓: using strict cutoffs with respect to DSHN for passing each metric; X: using strict cutoffs with respect to DSHN for passing each metric; settings: pass/fail with respect to DSHN
From the text: (§1) Development of a more efficacious NR0B2 agonist. While DSHN was a useful proof-of-concept small molecule, macrophages required high doses and chronic exposure for robust influences on subsequent Tregs expansion. […] Therefore, we synthesized several derivatives of DSHN and screened them using a reporter assay which makes use of the endogenous cholesterol homeostatic feedback loop, where FXR activation upregulates NR0B2, which then inhibits LXR and its normal induction of ABCA1. We then followed this screen with several others with stringent cutoffs: effect on endogenous ABCA1 and IL1β expression, reduction of Treg expansion in either macrophage or DC co-cultures, and low cellular toxicity (FIG. 5A, Table 4).
Resazurin cell viability assay. 20,000 cells were seeded into 96 well f-bottom, black plates (Corning Costar) and cell viability was measured using 100 μL resazurin per well at 0.3 mg/mL (Acros Organics). The fluorescence signal was quantified by plate reader (560 nm excitation/590 nm emission) at 2-3 h.

[4] = system: Treg expansion; assay: Treg expansion in co-culture with compound-treated splenic CD11C+ dendritic cells; type: cell-based, mouse; parameters: key to Treg expansion Dendritic Cells: ✓: using strict cutoffs with respect to DSHN for passing each metric; X: using strict cutoffs with respect to DSHN for passing each metric
Method: Preparation of Bone Marrow-Derived Macrophages (BMDMs) and Dendritic Cells. Bone marrow cells were collected from mouse tibia and femur. Cells were passed through 70-micron cell strainer and subsequently cultured 10 mL complete RPMI media supplemented with 20 ng/mL of recombinant murine M-CSF (576406; BioLegend, 315-02 PeproTech). On day 3, additional 5 ml of the complete media was added. On day 7, media was replaced. BMDMs were harvested on day 10 using cell stripper solution for further experiments. Dendritic cells were isolated from the spleens of wildtype, using mouse CD11c UltraPure MicroBeads (130-125-835; Miltenyi Biotec) according to the manufacturer's instructions) and cultured in RPMI medium supplemented with 10% heat-inactivated charcoal-stripped FBS, 50 μM β-mercaptoethanol, 1% sodium pyruvate, 1% nonessential amino acids, % penicillin/streptomycin, and 1% Glutamax.
In vitro Treg expansion assays. T cells were cultured in RPMI medium supplemented with 10% heat-inactivated charcoal-stripped FBS, 50 μM β-mercaptoethanol (Gibco), 1% sodium pyruvate, 1% nonessential amino acids, % penicillin/streptomycin, and 1% Glutamax (Gibco). Naïve CD4^+ T cells were isolated from the spleens of wildtype and OT-II, using Naive CD4^+ T Cell Isolation Kit (Miltenyi Biotec according to the manufacturer's instructions). T cells were labeled with the vital dye CFSE (BioLegend) or Cell Trace Violet (ThermoFisher) according to the manufacturer's instructions. For wildtype Treg expansion in presence of antigen presenting cells, naïve CD4^+ T cells were co-cultured with APC at indicated ratio in the presence of 0.5 μg/mL (anti-CD3 BioLegend), 0.5 ng/mL TGFβ (BioLegend) and 0.5 ng/ml IL-2 (BioLegend) for 72 hr at 37° C. For OT-II Treg expansion, OTII naïve CD4^+ T cells from OT-II mice were activated by antigen presentation by culturing BMDMs were primed with 10 μg/mL OVA323-339 (Bachem) and 0.5 μg/mL LPS (Sigma). naïve CD4+ T cells from OTII mice were co-cultured with primed APC at indicated ratio for 72 hrs. After 72 hrs of culture, cells were transferred into V-bottom plates (BD), pelleted by centrifugation and incubated with antibody staining mix containing Ghost Dye™ Red 780 viability dye diluted in PBS for 15 minutes at 4° C. Cell surface antigens were stained for 15 minutes at 4° C. with an antibody staining mix containing Ghost Dye™ Red 780 viability dye diluted in PBS. Cells were fixed and permeabilized with BD Cytofix/Cytoperm™ for 20 minutes at 4° C. Antibodies against intracellular antigens were diluted in 1×BD Perm/Wash™ buffer and cells were stained for 30 minutes at 4° C. Cytometry data were acquired on a LSRII, Fortessa, Symphony A1 (Becton Dickinson, NJ). Foxp3 induction was assessed by expression of FOXP3.

[5] = system: ABCA1 mRNA; assay: ABCA1 mRNA reduction in Raw cells; type: cell-based; parameters: key: ✓: using strict cutoffs with respect to DSHN for passing each metric; X: using strict cutoffs with respect to DSHN for passing each metric; settings: pass/fail with respect to DSHN
From the text: as §1

IC50 ([2]; BMDMs pre-treated with compound, then 1 μM GW3965, 4 parameter variable slope fit, read-out: IC50, ABCA1 mRNA as endpoint) [µM] | Structure (SMILES) | Treg expansion, human PBMC-derived DCs [1] | LXR induction of ABCA1 ([2]; BMDMs, GW3965) | Attenuation of ABCA1 induction with NR0B2 knockdown ([2]; BMDMs, NR0B2 siRNA, GW3965) | Low Toxicity [3] | Tregs, splenic CD11C+ (DC-enriched) cells ([4]; 50 μM DSHN-OMe versus 100 μM DSHN) | Treg expansion Dendritic Cells ([4]; pass/fail with respect to DSHN) | ABCA1 mRNA reduction (Raw Cells) [5]
– | CCN(CC)S(=O)(=O)c1cccc2cc(C(=O)O)c(O)cc12 [DSHN, reference compound] | decreased Treg expansion | – | – | – | – | – | –
3.8 | CCN(CC)S(=O)(=O)c1cccc2cc(C(=O)OC)c(O)cc12 [DSHN-OMe, Methyl 5-(N,N-diethylsulfamoyl)-3-hydroxy-2-naphthoate] | – | reducing LXR induction of ABCA1 in a dose-related manner | lost when NR0B2 was knocked down in BMDMs | ✓ | significantly fewer Tregs compared to twice the dose of DSHN | ✓ | ✓
